Structures are written as SMILES. Activity calls are given as the source filed them.

For orientation: EC50 means the concentration needed to bring the measured effect to its halfway point. A word on the AC50: it is the concentration at which the activity in the assay is half-maximal.

One experiment has as its system Streptococcus. Briefly: Group A Streptococcus viability loss, dose response, counter-screen for streptokinase expression inhibitor project, luminescence, BacTiterGlo (AID 1915).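 Further: potency for reduction of bacterial viability or growth.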 The format is functional, organism-based. (In general: A counterscreen serves to expose hits that act by an unwanted route or on another target.)
Experiment [1] can be described thus: Artemis endonuclease inhibitor potency, dose response, biochemical, fluorescence intensity (AID 720701).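 Further: Artemis endonuclease enzyme.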 In kind it is functional.
Experiment [2] has as its target T1, G-protein coupled receptor 55 (Homo sapiens, UniProt Q9Y2T6). Briefly: GPR55 agonists via beta-arrestin recruitment, primary screen, imaging, U2OS cells, beta-arrestin-GFP redistribution (AID 1961). In kind it is functional. (In general: Activated receptors often draw arrestin, which recruitment assays turn into a signal.)
A short description of experiment [3]: microbe, parasite or virus in culture. The format is functional. Particulars: Mycobacterium tuberculosis.
Experiment [4] addresses Luciferin 4-monooxygenase (Photinus pyralis, UniProt P08659). The experiment is described as follows: Counter Screen for Luciferase-based Assay Positives. [Related pubchem assays: 620, 618, 411 ].
The next experiment concerns HT-1080. The experiment is described as follows: cytotoxicity in HT1080 fibrosarcoma cells, cell-based, fluorescence readout (AID 620). The format is functional. Particulars: Homo sapiens.
The test system of experiment [5] is Streptococcus sp. 'group A'. Briefly: growth inhibition of control SK(-) GAS strain, dose response, counter-screen for streptokinase expression inhibitor project, luminescence, kanamycin, BacTiterGlo, confirmation (AID 1900). The format is functional, organism-based.
In the next experiment the target is T2, Streptokinase A (Streptococcus pyogenes serotype M1, UniProt P10520).
T2 sequence (P10520 whole entry): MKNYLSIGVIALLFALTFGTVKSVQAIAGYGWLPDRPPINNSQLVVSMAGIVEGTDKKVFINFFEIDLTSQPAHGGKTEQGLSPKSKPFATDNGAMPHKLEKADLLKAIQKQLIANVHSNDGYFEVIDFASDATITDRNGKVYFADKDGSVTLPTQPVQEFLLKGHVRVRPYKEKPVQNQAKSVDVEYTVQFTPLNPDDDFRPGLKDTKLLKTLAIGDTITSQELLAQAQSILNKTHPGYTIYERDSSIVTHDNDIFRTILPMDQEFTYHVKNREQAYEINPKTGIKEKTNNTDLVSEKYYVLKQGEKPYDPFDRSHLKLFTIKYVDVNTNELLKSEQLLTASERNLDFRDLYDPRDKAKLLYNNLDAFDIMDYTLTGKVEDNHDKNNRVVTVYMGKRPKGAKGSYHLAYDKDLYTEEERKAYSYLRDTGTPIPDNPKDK
Briefly: S. pyogenes streptokinase expression inhibitors, potency, dose response, plasminogen activation absorbance, OD405 (AID 1914).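 Further: secreted streptokinase activity via plasminogen activation per viability signal from cell pellet.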 In kind it is functional, Streptococcus pyogenes M1 GAS.

Experiment [6] addresses Glyceraldehyde-3-phosphate dehydrogenase (Homo sapiens, UniProt P04406).
Another experiment concerns INS1. The experiment is described as follows: beta cell apoptosis inhibitors, cytokine rescue, dose response, luminescence, retest (AID 449756).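 Further: cell death triggered by IL-1 beta plus TNF-alpha plus IFN-gamma mixture; protective hits raise ATP signal compared with cytokine alone wells.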 The format is functional, cell-based. Particulars: Rattus norvegicus.
The target in experiment [7] is T3, Runt-related transcription factor 1/Core-binding factor subunit beta (Homo sapiens, UniProt Q01196+Q13951). Briefly: inhibitors of RUNX1 Runt–CBFb-SMMHC binding, primary screen, biochemical, FRET, Cerulean-Runt, Venus-CBFb-SMMHC, uHTS (AID 1434).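 Further: partner is the CBFb-SMMHC leukemia fusion protein rather than wild-type CBFb.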 The format is protein assay.
The target of experiment [8] is T3, Runt-related transcription factor 1/Core-binding factor subunit beta. The experiment is described as follows: inhibitors of RUNX1 Runt–CBFb-SMMHC binding, biochemical, TR-FRET (AID 1438). The format is protein assay. For orientation: In TR-FRET formats the signal depends on donor and acceptor labels being close together.
In experiment [9] the target is T4, Cannabinoid receptor 2 (Homo sapiens, UniProt P34972). The experiment is described as follows: SAR analysis of antagonists of the Cannabinoid Receptor 2 using an Image-Based Assay - Set 3. [Related pubchem assays (depositor defined):AID2013, AID2026]. In kind it is functional.
Experiment [10] has as its target T5, Probable nicotinate-nucleotide adenylyltransferase (Staphylococcus aureus (strain N315), UniProt P65502). The format is functional, Staphylococcus aureus subsp. aureus N315. As to conditions: read-out: IC50_Mean.
A short description of experiment [11]: HEp-2 cell cytotoxicity, dose response, cytotoxicity control for RSV inhibitor project, HTS (AID 2410). The format is functional. As to conditions: human respiratory syncytial virus.
Experiment [12] deals with T6, Cannabinoid receptor 1 (Homo sapiens, UniProt P21554). The experiment is described as follows: SAR analysis of antagonists of the Cannabinoid Receptor 1 using an Image-Based Assay - Set 4. [Related pubchem assays (depositor defined):AID2013, AID2026]. The format is functional.
Experiment [13] concerns the target T7, G-protein coupled receptor 35 (Homo sapiens, UniProt Q9HC97). The experiment is described as follows: SAR analysis of Antagonists of the GPR35 Receptor using an Image-Based Assay - Set 6. [Related pubchem assays (depositor defined):AID2013, AID2026]. The format is functional.
The target of experiment [14] is T5, Probable nicotinate-nucleotide adenylyltransferase. In kind it is functional, Staphylococcus aureus subsp. aureus N315.
The target of experiment [15] is T7, G-protein coupled receptor 35. Briefly: SAR analysis of Agonists of the GPR35 Receptor using an Image-Based Assay - Set 4. [Related pubchem assays (depositor defined):AID2013, AID2026]. The format is functional.
Experiment [16] addresses T1, G-protein coupled receptor 55. Briefly: SAR Analysis of Selective Antagonists of GPR55 using an Image-Based Assay - Set 4. [Related pubchem assays (depositor defined):AID2013, AID2026]. The format is functional.
The target in experiment [17] is T6, Cannabinoid receptor 1. The experiment is described as follows: SAR analysis of agonists of the Cannabinoid Receptor 1 using an Image-Based Assay - Set 4. [Related pubchem assays (depositor defined):AID2013, AID2026]. The format is functional.
Experiment [18] has as its target T4, Cannabinoid receptor 2. Briefly: SAR analysis of agonists of the Cannabinoid Receptor 2 using an Image-Based Assay - Set 3. [Related pubchem assays (depositor defined):AID2013, AID2026]. In kind it is functional.
A short description of experiment [19]: HeLa cell cytotoxicity, dose response, cytotoxicity control for MgcRacGAP inhibitor project (AID 624300). In kind it is functional.
Experiment [20] has as its target T8, CAAX prenyl protease 2 (Homo sapiens, UniProt Q9Y256).
T8 sequence (Q9Y256 whole entry): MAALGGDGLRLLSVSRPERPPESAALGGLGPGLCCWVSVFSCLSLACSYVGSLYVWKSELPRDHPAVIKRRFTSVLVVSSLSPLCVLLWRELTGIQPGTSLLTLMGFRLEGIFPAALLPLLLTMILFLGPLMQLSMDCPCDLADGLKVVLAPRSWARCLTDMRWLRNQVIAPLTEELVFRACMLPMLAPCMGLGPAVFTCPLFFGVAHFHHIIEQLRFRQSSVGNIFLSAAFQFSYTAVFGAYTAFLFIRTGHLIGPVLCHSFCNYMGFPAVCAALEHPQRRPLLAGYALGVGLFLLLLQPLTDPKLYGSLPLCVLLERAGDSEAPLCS
Briefly: human Rce1 protease inhibitors, dose response, biochemical, yeast membranes, quenched-peptide fluorescence, cherry-pick (AID 588849).

For experiment [21], the target named is T9, Rac GTPase-activating protein 1 (Homo sapiens, UniProt Q9H0H5).
T9 sequence (Q9H0H5 whole entry): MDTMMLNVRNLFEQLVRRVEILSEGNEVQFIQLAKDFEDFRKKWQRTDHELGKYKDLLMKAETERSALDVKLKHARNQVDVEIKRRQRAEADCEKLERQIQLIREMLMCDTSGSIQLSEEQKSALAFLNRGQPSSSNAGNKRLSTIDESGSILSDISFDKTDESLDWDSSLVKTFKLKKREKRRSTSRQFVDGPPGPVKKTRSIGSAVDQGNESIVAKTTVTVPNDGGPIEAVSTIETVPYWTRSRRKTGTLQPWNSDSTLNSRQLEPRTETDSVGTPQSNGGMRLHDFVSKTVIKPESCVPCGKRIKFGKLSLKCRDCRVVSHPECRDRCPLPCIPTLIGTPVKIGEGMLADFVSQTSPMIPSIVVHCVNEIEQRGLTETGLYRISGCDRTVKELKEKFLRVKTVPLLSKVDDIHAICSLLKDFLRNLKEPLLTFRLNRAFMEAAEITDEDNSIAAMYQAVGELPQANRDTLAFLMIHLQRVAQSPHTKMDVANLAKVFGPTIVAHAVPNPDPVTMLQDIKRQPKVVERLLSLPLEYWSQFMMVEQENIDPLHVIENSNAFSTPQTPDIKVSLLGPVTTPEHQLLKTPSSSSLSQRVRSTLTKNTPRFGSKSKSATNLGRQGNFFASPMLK
The experiment is described as follows: MgcRacGAP GTPase-activating activity inhibitors, confirmation, biochemical, ADP Hunter fluorescence, primary and confirmatory (AID 624330). In kind it is functional.

The target of the next experiment is Trypsin (Sus scrofa, UniProt P00761). The experiment is described as follows: porcine trypsin inhibitors, dose response, selectivity assay for Rce1 protease inhibitor project, biochemical, quenched peptide fluorescence, cherry-pick (AID 488789).
In experiment [22] the target is CAAX prenyl protease 2 (Saccharomyces cerevisiae S288c, UniProt Q03530). In kind it is biochemical.
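Wherever IC50 Mean is given: confirmatory dose-response retesting of NadD inhibitor hits first found in an ultra-high-throughput screen.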

T3 sequence (Q01196 whole entry, the tested form may be a part): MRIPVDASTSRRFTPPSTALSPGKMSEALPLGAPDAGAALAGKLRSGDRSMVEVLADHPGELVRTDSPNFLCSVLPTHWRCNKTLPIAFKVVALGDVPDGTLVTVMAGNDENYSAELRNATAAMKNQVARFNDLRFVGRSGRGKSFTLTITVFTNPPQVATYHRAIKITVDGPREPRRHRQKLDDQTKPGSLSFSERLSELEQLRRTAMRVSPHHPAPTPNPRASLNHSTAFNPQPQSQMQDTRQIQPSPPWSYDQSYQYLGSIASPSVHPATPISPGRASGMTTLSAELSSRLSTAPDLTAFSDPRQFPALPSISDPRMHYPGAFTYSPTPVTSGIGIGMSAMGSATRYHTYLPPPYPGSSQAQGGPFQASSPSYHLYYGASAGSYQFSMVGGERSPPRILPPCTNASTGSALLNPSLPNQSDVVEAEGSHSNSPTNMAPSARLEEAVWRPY
T3 sequence (Q13951 whole entry, the tested form may be a part): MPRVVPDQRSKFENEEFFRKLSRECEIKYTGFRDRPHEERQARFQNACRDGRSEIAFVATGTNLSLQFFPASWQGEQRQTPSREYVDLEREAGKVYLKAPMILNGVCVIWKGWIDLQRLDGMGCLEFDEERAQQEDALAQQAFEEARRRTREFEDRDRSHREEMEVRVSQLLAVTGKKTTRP
T6 sequence (P21554 whole entry): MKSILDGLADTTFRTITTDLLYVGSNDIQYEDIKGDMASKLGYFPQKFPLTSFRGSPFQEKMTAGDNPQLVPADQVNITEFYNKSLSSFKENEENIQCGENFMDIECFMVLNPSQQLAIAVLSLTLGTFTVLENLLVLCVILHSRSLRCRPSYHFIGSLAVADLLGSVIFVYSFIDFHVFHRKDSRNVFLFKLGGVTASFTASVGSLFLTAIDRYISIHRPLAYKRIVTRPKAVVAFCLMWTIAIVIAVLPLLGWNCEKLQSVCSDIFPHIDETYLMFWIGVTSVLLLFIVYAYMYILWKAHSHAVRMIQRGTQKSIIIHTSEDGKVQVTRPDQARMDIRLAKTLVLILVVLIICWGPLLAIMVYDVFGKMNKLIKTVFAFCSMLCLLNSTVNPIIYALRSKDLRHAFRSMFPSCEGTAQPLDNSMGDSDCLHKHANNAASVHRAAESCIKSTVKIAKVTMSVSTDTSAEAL
T5 sequence (P65502 whole entry): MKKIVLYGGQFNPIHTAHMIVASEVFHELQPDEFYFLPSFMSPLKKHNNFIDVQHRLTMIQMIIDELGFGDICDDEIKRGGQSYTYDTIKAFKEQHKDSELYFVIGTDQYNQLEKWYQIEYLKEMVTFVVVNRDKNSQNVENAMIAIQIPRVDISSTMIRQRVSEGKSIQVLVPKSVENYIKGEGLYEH
T7 sequence (Q9HC97 whole entry): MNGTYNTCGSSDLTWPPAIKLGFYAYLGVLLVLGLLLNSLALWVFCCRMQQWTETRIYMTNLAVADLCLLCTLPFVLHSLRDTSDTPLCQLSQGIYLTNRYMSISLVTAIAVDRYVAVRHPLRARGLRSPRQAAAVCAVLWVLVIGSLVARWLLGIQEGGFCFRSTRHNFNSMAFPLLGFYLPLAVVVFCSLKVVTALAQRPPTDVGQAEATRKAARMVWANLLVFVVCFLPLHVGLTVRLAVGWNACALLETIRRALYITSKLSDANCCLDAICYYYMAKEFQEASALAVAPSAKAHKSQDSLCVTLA
T4 sequence (P34972 whole entry): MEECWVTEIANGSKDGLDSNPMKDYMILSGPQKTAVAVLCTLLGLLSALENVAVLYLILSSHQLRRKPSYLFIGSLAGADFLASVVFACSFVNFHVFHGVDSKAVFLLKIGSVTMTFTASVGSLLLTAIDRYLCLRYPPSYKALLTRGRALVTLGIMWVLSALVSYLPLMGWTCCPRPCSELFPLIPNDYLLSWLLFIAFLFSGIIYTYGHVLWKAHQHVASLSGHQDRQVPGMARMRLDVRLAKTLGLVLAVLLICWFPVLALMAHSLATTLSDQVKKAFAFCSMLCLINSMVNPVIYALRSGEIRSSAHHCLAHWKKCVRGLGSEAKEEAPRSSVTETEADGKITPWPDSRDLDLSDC
T1 sequence (Q9Y2T6 whole entry): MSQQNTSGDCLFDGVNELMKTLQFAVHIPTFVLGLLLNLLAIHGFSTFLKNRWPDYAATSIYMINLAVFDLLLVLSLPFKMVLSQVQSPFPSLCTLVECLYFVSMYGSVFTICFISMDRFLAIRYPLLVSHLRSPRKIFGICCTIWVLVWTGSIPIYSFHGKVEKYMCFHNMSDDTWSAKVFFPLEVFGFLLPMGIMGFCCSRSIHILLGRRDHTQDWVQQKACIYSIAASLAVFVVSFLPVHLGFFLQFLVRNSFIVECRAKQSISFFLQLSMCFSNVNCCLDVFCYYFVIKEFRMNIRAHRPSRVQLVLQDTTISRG
Trypsin, sequence (P00761 whole entry): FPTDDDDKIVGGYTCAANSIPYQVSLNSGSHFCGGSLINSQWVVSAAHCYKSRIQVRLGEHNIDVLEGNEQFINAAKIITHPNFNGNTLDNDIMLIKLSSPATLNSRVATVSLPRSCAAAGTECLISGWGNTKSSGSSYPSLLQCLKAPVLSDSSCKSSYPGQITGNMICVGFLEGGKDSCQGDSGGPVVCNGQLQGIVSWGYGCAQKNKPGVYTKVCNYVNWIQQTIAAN
Glyceraldehyde-3-phosphate dehydrogenase, sequence (P04406 whole entry): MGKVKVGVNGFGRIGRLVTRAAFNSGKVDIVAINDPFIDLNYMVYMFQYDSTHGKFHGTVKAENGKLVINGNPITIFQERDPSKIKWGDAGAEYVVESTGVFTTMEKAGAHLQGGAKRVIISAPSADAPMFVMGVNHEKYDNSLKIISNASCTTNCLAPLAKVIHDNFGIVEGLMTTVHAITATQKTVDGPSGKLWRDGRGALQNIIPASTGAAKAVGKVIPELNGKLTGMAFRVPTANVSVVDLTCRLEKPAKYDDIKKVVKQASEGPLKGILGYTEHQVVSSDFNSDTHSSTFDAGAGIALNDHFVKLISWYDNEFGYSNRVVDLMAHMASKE
CAAX prenyl protease 2 (Saccharomyces cerevisiae S288c, UniProt Q03530), sequence (Q03530 whole entry): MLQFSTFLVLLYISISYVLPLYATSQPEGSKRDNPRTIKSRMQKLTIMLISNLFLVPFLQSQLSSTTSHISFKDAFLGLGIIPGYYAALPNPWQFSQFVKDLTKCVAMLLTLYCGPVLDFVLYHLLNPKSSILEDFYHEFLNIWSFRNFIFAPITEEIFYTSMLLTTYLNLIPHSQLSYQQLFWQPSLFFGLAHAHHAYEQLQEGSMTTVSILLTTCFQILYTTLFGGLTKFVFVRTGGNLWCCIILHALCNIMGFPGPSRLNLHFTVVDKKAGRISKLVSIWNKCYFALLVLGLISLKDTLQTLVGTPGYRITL
Luciferin 4-monooxygenase, sequence (P08659 whole entry): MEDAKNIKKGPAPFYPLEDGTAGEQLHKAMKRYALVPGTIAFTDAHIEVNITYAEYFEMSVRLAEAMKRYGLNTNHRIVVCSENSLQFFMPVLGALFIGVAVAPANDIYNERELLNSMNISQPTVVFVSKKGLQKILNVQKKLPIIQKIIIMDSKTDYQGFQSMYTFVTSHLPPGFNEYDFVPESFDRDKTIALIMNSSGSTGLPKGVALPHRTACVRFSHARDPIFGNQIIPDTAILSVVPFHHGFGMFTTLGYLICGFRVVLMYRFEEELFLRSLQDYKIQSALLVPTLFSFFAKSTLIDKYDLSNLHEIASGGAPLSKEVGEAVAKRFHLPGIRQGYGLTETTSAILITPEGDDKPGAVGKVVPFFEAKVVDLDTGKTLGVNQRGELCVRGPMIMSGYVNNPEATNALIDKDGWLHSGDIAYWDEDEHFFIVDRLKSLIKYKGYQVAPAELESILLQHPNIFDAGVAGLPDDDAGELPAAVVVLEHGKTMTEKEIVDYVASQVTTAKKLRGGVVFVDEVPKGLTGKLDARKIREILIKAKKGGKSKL

As for `Cc1cc(/C=N/n2cnnc2)c(C)n1-c1ccc(OCc2ccc(Cl)cc2Cl)cc1`, the EC50 with Streptococcus was 4.73 µM (active); in experiment [2] it was 1.35 µM (active); in [4], 0.28 µM (active); in the experiment on HT-1080, > 50 µM (not active); in experiment [5], 2.46 µM (active); at Streptokinase A it was > 150 µM (not active). In addition, the IC50 in [1] is 5.84 µM (active); in experiment [6] it was > 100 µM (not active). Moreover, the CC50 in experiment [3] was 14.1 µM (active). Besides, the concentration at half-maximal activity (AC50) in the experiment with INS1 is 1.6 µM (active).
Take `Cc1cc(C)n2nc3nc4c(cc3c2n1)CCCC4`: the IC50 in experiment [7] was 36.8 µM (active); in experiment [8] it was > 100 µM (inactive).
In the case of `Cc1ccc(-c2cc(C(=O)Nc3ccc(S(=O)(=O)Nc4nccs4)cc3)c3ccccc3n2)c(C)c1`, the IC50 on Cannabinoid receptor 2 [9] is > 32 µM (inactive); in experiment [10], 21.6 µM (active); on Cannabinoid receptor 1 [12] it was 10.2 µM (inactive); in [13] it was > 32 µM (inactive); in experiment [14], 5.29 µM (active); in experiment [16], 7.7 µM (active). In [11], the CC50 was 24.3 µM (active). The EC50 (in experiment [15]; on Cannabinoid receptor 1 [17]; at Cannabinoid receptor 2 [18]) was > 32 µM (inactive) each time.
For `COc1cc(-c2nc3ccccn3c2NCC2CCCO2)ccc1O` (configuration not stated), the CC50 in experiment [19] was 100 µM (active). Moreover, the AC50 was 6.82 µM (active) on CAAX prenyl protease 2 [20], 12.8 µM (active) on Trypsin and 23.4 µM (active) on CAAX prenyl protease 2 [22]. Besides, in [21], the IC50 is 49.9 µM (active).

For the origin of these results see ChEMBL document CHEMBL1201862, “PubChem BioAssay data set” (2004).
